One series deals with HUVEC cells. Briefly: Effect of co-delivery system on the activity of HUVEC cells (CCK-8). Format: cell-based, human. The following applies: Dox 0.1 μM, polypeptide 2.1 μM, 24 hours, CCK8. As for the experimental part:
(§1) HUVEC cells were inoculated in 96-well plates with 1×10^4 cells per well, and grouping was the same as experiment 8. Corresponding drug stock solutions were added into each well in each experimental group to make the final Dox concentration of each well is 0.1 μM and the final corresponding polypeptide concentration of each well is 2.1 μM. Incubated at 37° C. in 5% CO2 incubator for 24 hours, then washed with PBS, and 110 μL CCK8 diluent (including 100 μL RPMI 1640 medium+10 μL CCK-8) was added in each well, followed by incubation for 2 h. The absorbance values (OD value) at wavelengths of 450 nm and 630 nm were measured by a microplate reader, and the percent viability of cells was calculated according to Formula 1, and the control group was the cells without drug treatment, denoted as Con.

In series [1] the test system is MOLM-13 cells. Description: Effect of co-delivery system on the activity of MOLM-13 cells (CCK-8). Format: cell-based. The following applies: human, 24 h. On the procedure:
The following experimental groups were set and stock solutions for experiment were configured, including:
1) Polypeptide PO-6 group (PO-6): polypeptide stock solution obtained in Example 1 (polypeptide concentration is 1 mM);
2) Doxorubicin (Dox) group: doxorubicin hydrochloride was dissolved in sterile water to obtain 1 mg/mL (1.7 mM) Dox stock solution;
3) High polymer group (mPEG2000-PCL2000): 15 mg mPEG2000-PCL2000 powder was weighted and dissolved with 1 mL PBS solution to obtain 15 mg/mL (3.3 mM) mPEG2000-PCL2000 stock solution.
4) Polypeptide PO-6 and Dox combination group (PO-6+Dox): the polypeptide stock solution in experimental group 1) and the Dox stock solution in experimental group 2) were diluted with PBS solution respectively, then mixed to obtain a mixed solution. The concentration of polypeptide was 36.2 μM, the concentration of Dox was 17.24 μM, and the weight ratio of polypeptide PO-6 to Dox was 10:1 in the mixed solution; […]
Experimental procedure: MOLM-13 cells were inoculated in 96-well U-shaped plates with 8×10^4 cells per well. […] The absorbance values (OD value) at wavelengths of 450 nm and 630 nm were measured by a microplate reader, and the percent viability of cells was calculated according to Formula 1, and the control group was the cells without drug treatment, denoted as Con; […]

A short description of series [2]: Effect of co-delivery system on the activity of HUVEC cells (CCK-8). The series is classed as cell-based, human. To be noted: human, Dox 0.1 μM, polypeptide 2.1 μM, CCK8, read-out: percent viability of cells. As for the experimental part:
as §1

For series [3], the system named is MOLM-13 cells. Briefly: Binding of polypeptide, polypeptide complex to MOLM-13 observed by laser scanning confocal microscope. The following applies: FITC-labeled, polypeptide 0.5 μM, 0.5 h. As for the experimental part: MOLM-13 cells (2×10^5 cells per well) were incubated with FITC-labeled polypeptides (taking PO-6, and PO-6N as examples) and polypeptide complexes (see Table 2) at 37° C. for 30 min, and the final concentration of polypeptides was 0.5 μM (the final concentration of polypeptides in the cultivation system of polypeptide complexes was also 0.5 μM). After incubation, the cells were collected and washed twice with PBS solution, centrifuged at 1500 rpm for 5 min, and the supernatant was discarded. 400 μL paraformaldehyde in PBS aqueous solution (containing 4 wt % paraformaldehyde) was added to each well, and they were placed in dark at room temperature for 30 min, so that the cells were fixed by paraformaldehyde. washed once with PBS solution, centrifugated at 2000 rpm for 5 min, and the cells were dropped on the glass slide to dry naturally, and then was sealed with a mounting medium containing DAPI (4′, 6-diamidino-2-phenylindole). Laser scanning confocal microscope (Ex=488 nm (FITC); Ex=405 nm (DAPI)) was used for observation and photographing. MOLM-13 cells without any treatment were taken as the control group, i.e., Con. Photos of polypeptide PO-6 and PO-6N and corresponding polypeptide complexes (taking C-1 and C-1′ as examples) are shown in FIG. 9 and FIG. 10. […]

Series [4] concerns MOLM-13 cells (CD123-positive). Description: Polypeptide binding to MOLM-13 cells by flow cytometry. To be noted: FITC-labeled polypeptide 0.5, 1, 5 and 10 μM, 37° C., 0.5 h. On the procedure:
(§2) MOLM-13 and K562 cells were inoculated into 48-well plates with 2×10^5 cells per well, respectively, and FITC-labeled polypeptides listed in Table 1 were added to make the final concentrations of polypeptides were 0.5 μM, 1 μM, 5 μM and 10 μM, respectively. Incubate at 37° C. in 5% CO2 incubator for 0.5 h. After incubation, washed once with PBS solution, centrifuged at 1500 rpm for 5 min, and the supernatant was discarded, and 100 μL PBS solution was added to each well to re-suspend the cells, and 300 mesh sieve was used for filtration. Flow cytometry was used for determination of the mean fluorescence intensity (MFI) of MOLM-13 and K562 cells, and MFI was used as indication of the binding quantity of polypeptide on cells. FIGS. 2 and 3 show the quantity of polypeptides bound to cells.
(A flow cytometer gives signals particle by particle.)

For series [5], the system named is K562 cells (CD123-negative). Briefly: Polypeptide binding to K562 cells by flow cytometry. The following applies: FITC-labeled polypeptide 0.5, 1, 5 and 10 μM, 37° C., 0.5 h. As for the experimental part: as §2

Three molecules from US20230250183A1, “POLYPEPTIDE THAT SPECIFICALLY BINDING TO CD123 PROTEIN, POLYPEPTIDE COMPLEXE, CO-DELIVERY SYSTEM AND PREPARATION METHOD AND USE THEREOF” (Institute of Basic Medical Sciences Chinese Academy of …, priority 2020, published 2023) can be followed below.

Counter-ions that a name gives are not always drawn. No end group written: not given here.

With `COc1cccc2c1C(=O)c1c(O)c3c(c(O)c1C2=O)C[C@@](O)(C(=O)CO)C[C@@H]3O[C@H]1C[C@H](N)[C@H](O)[C@H](C)O1` [Dox, doxorubicin hydrochloride, reference compound], the “percent viability of cells” value is given as “about 50%” in the series with HUVEC cells and 57% with MOLM-13 cells [1] (0.1 μM).

As a reminder, the viability is a per cent measure of how many cells are alive, often set against a control. In the case of DDDYDTRAQGTDIGCDFRRISDDD [PO-6], in series [2], the viability at 24 h, 2.1 µM was over 90%. The “percent viability of cells” value in the series with MOLM-13 cells [1] (0.21 μM) came to 98%.

Consider GGDDDYDTRAQGTDIGNDFRRISDDD [PO-6N], for which, in the series on MOLM-13 cells [3], the “green fluorescence on the cell surface compared with Con” value is recorded as “obvious green fluorescence”. For the same molecule, the “binding quantity to MOLM-13 cells (mean fluorescence intensity of FITC)” value in series [4] was “can bind”. For the same molecule, the “binding quantity to K562 cells (mean fluorescence intensity of FITC)” value in series [5] is “very weak”.
